For one data set, the system named is Vero E6 cells. To be noted: for Concentration at Maximum % Viability: monkey.
Data set [1] concerns the target recombinant human ACE2 (rhACE2) (Homo sapiens, UniProt Q9BYF1). Description: ACE2 inhibitor screening assay. Format: biochemical.
The nature of another data set: in vitro. The conditions noted are these: African green monkey.
The target in data set [2] is rhACE2 - SARS-CoV-2 Spike (RBD) protein interaction (Homo sapiens, UniProt Q9BYF1). Nature of the data set: biochemical. Format: binding, human; SARS-CoV-2.
Sequence of rhACE2 - SARS-CoV-2 Spike (RBD) protein interaction (Q9BYF1 18-740): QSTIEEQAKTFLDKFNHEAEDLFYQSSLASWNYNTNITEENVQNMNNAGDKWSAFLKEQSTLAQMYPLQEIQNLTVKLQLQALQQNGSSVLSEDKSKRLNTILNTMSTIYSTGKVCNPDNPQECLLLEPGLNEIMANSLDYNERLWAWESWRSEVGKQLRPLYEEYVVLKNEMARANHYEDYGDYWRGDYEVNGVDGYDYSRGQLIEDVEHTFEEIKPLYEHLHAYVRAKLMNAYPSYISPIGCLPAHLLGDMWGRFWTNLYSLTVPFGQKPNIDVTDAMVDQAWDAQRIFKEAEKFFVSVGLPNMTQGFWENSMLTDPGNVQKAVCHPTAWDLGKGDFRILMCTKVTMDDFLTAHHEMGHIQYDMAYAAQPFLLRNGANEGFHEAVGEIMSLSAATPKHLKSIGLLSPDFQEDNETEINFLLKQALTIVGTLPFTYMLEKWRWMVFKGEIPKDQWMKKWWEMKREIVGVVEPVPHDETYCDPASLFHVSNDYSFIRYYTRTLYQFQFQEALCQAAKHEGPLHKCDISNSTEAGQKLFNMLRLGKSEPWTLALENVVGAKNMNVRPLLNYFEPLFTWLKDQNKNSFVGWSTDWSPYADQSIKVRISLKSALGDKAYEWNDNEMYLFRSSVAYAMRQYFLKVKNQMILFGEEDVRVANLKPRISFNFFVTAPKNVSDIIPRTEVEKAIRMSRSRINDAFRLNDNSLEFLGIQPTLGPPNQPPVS
The test system of another data set is SARS-CoV-2 USA_WA1/2020. It is filed as cell-based.
Data set [3] relates to ACE2-Spike interaction (SARS-CoV, SARS-CoV2, NL63S). The conditions noted are these: cited from earlier work.
The mark [4] stands for this setting: Spike (RBD)-ACE2 Interaction Assay IC50_1.
The mark [5] stands for this setting: Spike (RBD)-ACE2 Interaction Assay IC50_2.

The text below walks through data of article PMC7951571 (Heliyon, 2021).

A word on the IC50: it is the concentration that inhibits the measured activity by half. The term viability denotes a read-out of living cells in per cent, often relative to untreated cells.

Each structure is given as a SMILES string. Where two headings read alike, the source gives them in different places. Residues, ends and D or L forms follow the SMILES beside them. *: point of attachment. Cbz = O=C(OCc1ccccc1)*; CH2F = FC* Where only a bound is given, the exact number is not on record here.

Sequence of recombinant human ACE2 (rhACE2) (Q9BYF1 18-805): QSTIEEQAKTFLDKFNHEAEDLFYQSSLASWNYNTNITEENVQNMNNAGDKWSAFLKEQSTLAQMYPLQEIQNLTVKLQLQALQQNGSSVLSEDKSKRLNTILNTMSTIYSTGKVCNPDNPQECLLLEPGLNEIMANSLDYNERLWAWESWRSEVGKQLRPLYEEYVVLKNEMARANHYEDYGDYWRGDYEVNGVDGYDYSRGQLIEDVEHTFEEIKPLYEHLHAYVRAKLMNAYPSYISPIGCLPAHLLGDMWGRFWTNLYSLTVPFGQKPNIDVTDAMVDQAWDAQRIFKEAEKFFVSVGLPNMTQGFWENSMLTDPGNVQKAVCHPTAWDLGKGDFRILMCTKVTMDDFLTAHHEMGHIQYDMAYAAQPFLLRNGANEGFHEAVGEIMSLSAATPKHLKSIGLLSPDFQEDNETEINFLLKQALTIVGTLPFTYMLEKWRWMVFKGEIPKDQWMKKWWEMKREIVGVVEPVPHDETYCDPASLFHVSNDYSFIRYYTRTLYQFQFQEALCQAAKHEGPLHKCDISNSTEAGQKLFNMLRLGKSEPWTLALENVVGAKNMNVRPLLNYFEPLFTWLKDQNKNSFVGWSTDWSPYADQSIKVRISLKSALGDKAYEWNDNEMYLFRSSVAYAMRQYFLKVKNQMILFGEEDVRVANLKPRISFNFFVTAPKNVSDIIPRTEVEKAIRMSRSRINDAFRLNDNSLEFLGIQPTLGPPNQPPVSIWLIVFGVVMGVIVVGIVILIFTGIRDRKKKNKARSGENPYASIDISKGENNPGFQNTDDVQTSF

Take `Oc1c(Br)cc(Cl)c2cccnc12` [CLBQ14, 7-bromo-5-chloro-8-hydroxyquinoline]: the “Concentration at Minimum % Viability” value in the data set with Vero E6 cells (African green monkey) stood at 15000 nM. The “Concentration at Maximum % Viability” value in the data set with Vero E6 cells worked out at 120 nM. For the same compound, the IC50 in data set [1] was determined as 5.55 µM; in data set [2] (setting [4]), 2.76 µM; in data set [2] (setting [5]), 3.06 µM. Further, the CC50 in “in vitro” was over 30 µM. Moreover, the viability was 108% in “in vitro” (Maximum Viability (%)) and 53.5% in “in vitro” (Minimum Viability (%)).

Consider `Oc1c(Cl)cc(Cl)c2cccnc12` [CLCQ, 5,7-dichloro-8-hydroxyquinoline], for which the “Concentration at Minimum % Viability” value in the data set on Vero E6 cells (African green monkey) was 15000 nM. Also, the “Concentration at Maximum % Viability” value with Vero E6 cells worked out at 60 nM. In addition, the IC50 in data set [1] was under 10 µM; in data set [2] (setting [4]) it was 1.74 µM; in data set [2] (setting [5]), 1.91 µM. The CC50 in “in vitro” is over 30 µM. Further, the results for the viability in the data set “in vitro” (Maximum Viability (%)) and in the data set “in vitro” (Minimum Viability (%)) were 102% and 60.8%, respectively.

Take `Oc1c(I)cc(Cl)c2cccnc12` [CLQ, 5-chloro-7-iodo-8-quinolinol]: in the data set on Vero E6 cells (African green monkey), the “Concentration at Minimum % Viability” value turned out to be 30000 nM. The “Concentration at Maximum % Viability” value in the data set with Vero E6 cells amounted to 230 nM. Further, the CC50 in “in vitro” is over 30 µM. The viability in the data set “in vitro” (Maximum Viability (%)) was determined as 106%; in the data set “in vitro” (Minimum Viability (%)), 61.8%. Also, in data set [2] (setting [4]), the IC50 is 0.85 µM.

Turning to `CC(C)C[C@H](NC(=O)OCc1ccccc1)C(=O)N[C@@H](CC(C)C)C(=O)N[C@@H](Cc1ccc(O)cc1)C(=O)CF` [Calpain Inhibitor IV] (Cbz-Leu-Leu-Tyr-CH2F), in the data set on Vero E6 cells, the CC50 was over 7.17 µM, the “Concentration at Minimum % Viability” value stood at 3590 nM, the “Maximum Viability (%)” value is given as 104.99% and the “Minimum Viability (%)” value came to 98.29%. In addition, the “Concentration at Maximum % Viability” value with Vero E6 cells is 220 nM. The “Maximum Inhibition (%)” value in the data set with SARS-CoV-2 USA_WA1/2020 stood at 95.75%. For the same compound, in the data set on SARS-CoV-2 USA_WA1/2020 (read-out: IC50, SARS-CoV-2 induced CPE), the half-inhibitory concentration (IC50) came out at 0.41 µM.

`CCN(CC)CCCC(C)Nc1ccnc2cc(Cl)ccc12` (stereo not shown) [Chloroquine]: the “Concentration at Minimum % Viability” value in the data set with Vero E6 cells (African green monkey) worked out at 15000 nM. Further, in the data set with Vero E6 cells, the “Concentration at Maximum % Viability” value turned out to be 60 nM. Further, the CC50 in “in vitro” was over 30 µM. Moreover, the viability in “in vitro” (Maximum Viability (%)) turned out to be 107%; in “in vitro” (Minimum Viability (%)), 95.6%. In addition, the “Maximum Inhibition (%)” value in the data set on SARS-CoV-2 USA_WA1/2020 turned out to be 111.08%.

For `CCOC(=O)[C@H]1O[C@@H]1C(=O)N[C@@H](CC(C)C)C(=O)NCCC(C)C` [E64d (Aloxistatin), Aloxistatin], the “Concentration at Minimum % Viability” value with Vero E6 cells (African green monkey) was 15000 nM. For the same compound, the “Concentration at Maximum % Viability” value with Vero E6 cells worked out at 120 nM. Also, the CC50 in the data set “in vitro” is over 30 µM. The viability was found to be 113% in the data set “in vitro” (Maximum Viability (%)) and 100% in “in vitro” (Minimum Viability (%)). Besides, the “Maximum Inhibition (%)” value in the data set on SARS-CoV-2 USA_WA1/2020 is on record as 98.55%.

With `CCN(CCO)CCCC(C)Nc1ccnc2cc(Cl)ccc12` (stereo not shown) [Hydroxychloroquine], in the data set on Vero E6 cells (African green monkey), the “Concentration at Minimum % Viability” value was determined as 3750 nM. For the same compound, the “Concentration at Maximum % Viability” value in the data set on Vero E6 cells amounted to 60 nM. The compound also showed a CC50 in the data set “in vitro” of over 30 µM. The viability turned out to be 104% in the data set “in vitro” (Maximum Viability (%)) and 96.9% in the data set “in vitro” (Minimum Viability (%)). In addition, the “Maximum Inhibition (%)” value with SARS-CoV-2 USA_WA1/2020 stood at 93.14%.

As for `CC(C)C[C@H](N[C@@H](Cc1cncn1Cc1cc(Cl)cc(Cl)c1)C(=O)O)C(=O)O` [MLN-4760, (S,S)-2-{1-Carboxy-2-[3-(3,5-dichloro-benzyl)-3H-imidazol-4-yl]-ethylamino}-4-methyl-pentanoic acid], in data set [3], the “disruption of ACE2-Spike interaction” value is on record as “does not disrupt ACE2-Spike interaction”.

For `CCC(CC)COC(=O)[C@H](C)N[P@](=O)(OC[C@H]1O[C@@](C#N)(c2ccc3c(N)ncnn23)[C@H](O)[C@@H]1O)Oc1ccccc1` [Remdesivir], the “Concentration at Minimum % Viability” value in the data set with Vero E6 cells (African green monkey) was 3750 nM. Besides, in the data set with Vero E6 cells, the “Concentration at Maximum % Viability” value is 60 nM. This compound also displayed a CC50 in “in vitro” of over 30 µM. Further, the viability in “in vitro” (Maximum Viability (%)) stood at 104%; in “in vitro” (Minimum Viability (%)), 97.5%. Besides, the “Maximum Inhibition (%)” value in the data set with SARS-CoV-2 USA_WA1/2020 came to 100.27%.

In the case of `[Cl-].[Cl-].[Zn+2]` [ZnCl2, Zinc Chloride], the “exopeptidase activity of rhACE2 in the presence of ZnCl2 alone” value in data set [1] (100μM to 100nM) is given as “increasing exopeptidase activity”.
